Measured values: ChEMBL document CHEMBL1201862, “PubChem BioAssay data set” (2004)
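The compound was tested at five concentrations on cells cultured in 96-well plates, with a 48-hour exposure period. GI50 marks 50% less growth.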 The source made the active and inactive calls. Cut-off read from the data, not from the text of the source: active = GI50 up to about 1.1 µM and inactive = higher.

Experiments:
Assay in all cases: NCI-60 cell line screen, 48 h
SR = tested on: SR
SK-MEL-28 = tested on: SK-MEL-28
MDA-MB-435 = tested on: MDA-MB-435
OVCAR-3 = tested on: OVCAR-3
Malme-3M = tested on: Malme-3M
NCI/ADR-RES = tested on: NCI/ADR-RES
RXF 393 = tested on: RXF 393
NCI-H522 = tested on: NCI-H522
SNB-75 = tested on: SNB-75
SK-MEL-2 = tested on: SK-MEL-2
EKVX = tested on: EKVX
MDA-MB-231 = tested on: MDA-MB-231
UO-31 = tested on: UO-31
ACHN = tested on: ACHN
SNB-19 = tested on: SNB-19
OVCAR-5 = tested on: OVCAR-5
HOP-62 = tested on: HOP-62
HT-29 = tested on: HT-29
UACC-62 = tested on: UACC-62
HCC 2998 = tested on: HCC 2998

Measured: GI50

COc1cc2c(cc1OC)C(CCN)=NCC2
inactive: SR 4.58 µM | SK-MEL-28 18.4 µM | MDA-MB-435 16.5 µM | OVCAR-3 18 µM | Malme-3M 18.8 µM | NCI/ADR-RES 27.4 µM | RXF 393 15.7 µM | NCI-H522 3.82 µM | SNB-75 18.5 µM | SK-MEL-2 17.4 µM | EKVX 23.1 µM | MDA-MB-231 16.6 µM | UO-31 1.77 µM | ACHN 16.6 µM | SNB-19 41.4 µM | OVCAR-5 > 42.6 µM | HOP-62 21.1 µM | HT-29 20.2 µM | UACC-62 18.2 µM

CS(=O)(=O)Nc1ccc(NCc2c[nH]c3ccc4ncccc4c23)cc1
inactive: SR 13.3 µM | SK-MEL-28 26.1 µM | MDA-MB-435 16.9 µM | OVCAR-3 31.1 µM | Malme-3M 23.7 µM | NCI/ADR-RES > 100 µM | RXF 393 23.9 µM | NCI-H522 18.5 µM | SNB-75 30.3 µM | SK-MEL-2 17.1 µM | EKVX 40.4 µM | MDA-MB-231 27.4 µM | UO-31 33.3 µM | ACHN 20.6 µM | SNB-19 49.1 µM | OVCAR-5 40.3 µM | HOP-62 36.5 µM | HT-29 34.8 µM | UACC-62 15 µM

CCOc1ccc(-n2c(=O)n3c(Nc4ccc(Cl)cc4)nc4c(c(=O)n(C)c(=O)n4C)n3c2=O)cc1
inactive: SR 21 µM | HCC 2998 19.5 µM | SK-MEL-28 28.2 µM | MDA-MB-435 20.3 µM | OVCAR-3 23 µM | NCI/ADR-RES > 100 µM | RXF 393 26.6 µM | NCI-H522 18.1 µM | SNB-75 13.7 µM | SK-MEL-2 26.4 µM | EKVX 24.9 µM | MDA-MB-231 15.5 µM | UO-31 > 100 µM | ACHN 43.4 µM | SNB-19 > 100 µM | OVCAR-5 37.6 µM | HOP-62 71.1 µM | HT-29 27.7 µM | UACC-62 18.1 µM
